Source: EP4818179A1, “PREPARATION FOR AND USE OF PYRIMIDO-THIOPYRANDIONE INHIBITOR FOR KRAS G12C MUTANT PROTEIN” (Ya Therapeutics Inc, priority 2024, dated 2025)

System: H358 (KRAS G12C mutant) cells
Experiment: Tumor cell proliferation inhibition experiment (Cell Titer-Glo luminescent cell viability assay)
Settings: Homo sapiens, NCI-H358, 72 h, read-out: NCI-H538 IC50(nm)
Description: H358 (KRAS G12C mutant) cells were digested, centrifuged, and resuspended. Cell density was determined using a Scepter automated cell counter. The cells were diluted to a solution containing 44,000 cells per milliliter. The adjusted cell solution was added to 90 µL per well in a 96-well culture plate. The 96-well plate was placed in a 37°C, 5% CO2 incubator. After culturing the cells for 24 hours, different concentrations of the test compound were added. The cells were then cultured with the compound for 72 hours in the presence of 10% fetal bovine serum. The ATP content was measured using the Cell Titer-Glo luminescent cell viability assay kit (see manufacturer's instructions for details) to assess cell growth inhibition. In short, 30 µL of Cell Titer-Glo reagent was added to each well, and the plate was shaken for 10 minutes to induce cell lysis. The fluorescence signal was detected and recorded using a Fluoroskan Ascent FL (Thermo). The maximum signal value was obtained from cells treated with dimethyl sulfoxide for 72 hours. Minimum signal value was obtained from a single culture medium (zero cell count). Inhibition rate % = (maximum signal value - minimum signal value) / (maximum signal value - minimum signal value × 100%). Data was processed using GraphPadprism 5 software. IC50 values were calculated by fitting an S-shaped dose-response curve.

Row | Compound | IC50
1 | C=CC(=O)N1CCN(c2nc(OC[C@@]34CCCN3C[C@H](F)C4)nc3c2CS(=O)(=O)C(c2c(F)c(N)cc(C)c2C(F)(F)F)C3)[C@@H](C)C1 (stereo partly drawn) [Compound 1, 1-((3S)-4-(7-(3-amino-2-fluoro-5-methyl-6-(trifluoromethyl)phenyl)-2-(((2R,7AS)-2-fluorotetrahydro-1H-pyrrolazin-7a(5H)-yl)methoxy)-6,6-dioxo-7,8-dihydro-5H-thiaran[4,3-d]pyrimidin-4-yl)-3-methylpyrazin-1-yl)prop-2-en-1-one] | < 10 nM
2 | C=CC(=O)N1CCN(c2nc(OC[C@@]34CCCN3C[C@H](F)C4)nc3c2CS(=O)(=O)[C@H](c2c(F)c(N)cc(C)c2C(F)(F)F)C3)[C@@H](C)C1 [Compound 1A, 1-((3S)-4-((7S)-7-(3-amino-2-fluoro-5-methyl-6-(trifluoromethyl)phenyl)-2-(((2R,7A S)-2-fluorotetrahydro-1H-pyrrolazin-7a(5H)-yl)methoxy)-6,6-dioxo-7,8-dihydro-5H-thiaran[4,3-d]pyrimidin-4-yl)-3-methylpyrazin-1-yl)prop-2-en-1-one] | < 10 nM
3 | C=CC(=O)N1CCN(c2nc(OC[C@@]34CCCN3C[C@H](F)C4)nc3c2CS(=O)(=O)[C@@H](c2c(F)c(N)cc(C)c2C(F)(F)F)C3)[C@@H](C)C1 [Compound 1B, 1-((3S)-4-((7R)-7-(3-amino-2-fluoro-5-methyl-6-(trifluoromethyl)phenyl)-2-(((2R,7A S)-2-fluorotetrahydro-1H-pyrrolazin-7a(5H)-yl)methoxy)-6,6-dioxo-7,8-dihydro-5H-thiaran[4,3-d]pyrimidin-4-yl)-3-methylpyrazin-1-yl)prop-2-en-1-one] | < 10 nM
4 | C=C(F)C(=O)N1CCN(c2nc(OC[C@@]34CCCN3C[C@H](F)C4)nc3c2CS(=O)(=O)C(c2c(F)c(N)cc(C)c2C(F)(F)F)C3)[C@@H](C)C1 (stereo partly drawn) [Compound 2, 1-((3S)-4-(7-(3-amino-2-fluoro-5-methyl-6-(trifluoromethyl)phenyl)-2-(((2R,7AS)-2-fluorotetrahydro-1H-pyrrolazin-7a(5H)-yl)methoxy)-6,6-dioxo-7,8-dihydro-5H-thiaran[4,3-d]pyrimidin-4-yl)-3-methylpyrazin-1-yl)-2-fluoroprop-2-en-1-one] | < 10 nM
5 | C=C(F)C(=O)N1CCN(c2nc(OC[C@@]34CCCN3C[C@H](F)C4)nc3c2CS(=O)(=O)[C@H](c2c(F)c(N)cc(C)c2C(F)(F)F)C3)[C@@H](C)C1 [Compound 2A, 1-((3S)-4-((7S)-7-(3-amino-2-fluoro-5-methyl-6-(trifluoromethyl)phenyl)-2-(((2R,7A S)-2-fluorotetrahydro-1H-pyrrolazin-7a(5H)-yl)methoxy)-6,6-dioxo-7,8-dihydro-5H-thiaran[4,3-d]pyrimidin-4-yl)-3-methylpyrazin-1-yl)-2-fluoroprop-2-en-1-one] | < 10 nM
6 | C=C(F)C(=O)N1CCN(c2nc(OC[C@@]34CCCN3C[C@H](F)C4)nc3c2CS(=O)(=O)[C@@H](c2c(F)c(N)cc(C)c2C(F)(F)F)C3)[C@@H](C)C1 [Compound 2B, 1-((3S)-4-((7R)-7-(3-amino-2-fluoro-5-methyl-6-(trifluoromethyl)phenyl)-2-(((2R,7A S)-2-fluorotetrahydro-1H-pyrrolazin-7a(5H)-yl)methoxy)-6,6-dioxo-7,8-dihydro-5H-thiaran[4,3-d]pyrimidin-4-yl)-3-methylpyrazin-1-yl)-2-fluoroprop-2-en-1-one] | < 10 nM
7 | C=CC(=O)N1CCN(c2nc(OC[C@@]34CCCN3C[C@H](F)C4)nc3c2CS(=O)(=O)C(c2c(F)c(N)cc(C)c2C(F)(F)F)C3)C[C@@H]1CC#N (stereo partly drawn) [Compound 3, 2-((2S)-1-Acryloyl-4-(7-(3-amino-2-fluoro-5-methyl-6-(trifluoromethyl)phenyl)-2-(((2R,7AS)-2-fluorotetrahydro-1H-pyrrolazin-7a(5H)-yl)methoxy)-6,6-dioxo-7,8-dihydro-5H-thiaran[4,3-d]pyrimidin-4-yl)pyrazin-2-yl)acetonitrile] | < 10 nM
8 | C=CC(=O)N1CCN(c2nc(OC[C@@]34CCCN3C[C@H](F)C4)nc3c2CS(=O)(=O)[C@H](c2c(F)c(N)cc(C)c2C(F)(F)F)C3)C[C@@H]1CC#N [Compound 3A, 2-((2S)-1-Acryloyl-4-((7S)-7-(3-amino-2-fluoro-5-methyl-6-(trifluoromethyl)phenyl)-2-(((2R,7AS)-2-fluorotetrahydro-1H-pyrrolazin-7a(5H)-yl)methoxy)-6,6-dioxo-7,8-di hydro-5H-thiaran[4,3-d]pyrimidin-4-yl)pyrazin-2-yl)acetonitrile] | < 10 nM
9 | C=CC(=O)N1CCN(c2nc(OC[C@@]34CCCN3C[C@H](F)C4)nc3c2CS(=O)(=O)[C@@H](c2c(F)c(N)cc(C)c2C(F)(F)F)C3)C[C@@H]1CC#N [Compound 3B, 2-((2S)-1-Acryloyl-4-((7R)-7-(3-amino-2-fluoro-5-methyl-6-(trifluoromethyl)phenyl) -2-(((2R,7AS)-2-fluorotetrahydro-1H-pyrrolazin-7a(5H)-yl)methoxy)-6,6-dioxo-7,8-dihydro-5H-thiaran[4,3-d]pyrimidin-4-yl)pyrazin-2-yl)acetonitrile] | < 10 nM
10 | C=C(F)C(=O)N1CCN(c2nc(OC[C@@]34CCCN3C[C@H](F)C4)nc3c2CS(=O)(=O)C(c2c(F)c(N)cc(C)c2C(F)(F)F)C3)C[C@@H]1CC#N (stereo partly drawn) [Compound 4, 2-((2S)-4-(7-(3-amino-2-fluoro-5-methyl-6-(trifluoromethyl)phenyl)-2-(((2R,7AS)-2-fluorotetrahydro-1H-pyrrolazin-7a(5H)-yl)methoxy)-6,6-dioxo-7,8-dihydro-5H-thiaran[4,3-d]pyrimidin-4-yl)-1-(2-fluoroacryloyl)pyrazin-2-yl)acetonitrile] | < 10 nM
11 | C=C(F)C(=O)N1CCN(c2nc(OC[C@@]34CCCN3C[C@H](F)C4)nc3c2CS(=O)(=O)[C@H](c2c(F)c(N)cc(C)c2C(F)(F)F)C3)C[C@@H]1CC#N [Compound 4A, 2-((2S)-4-((7S)-7-(3-amino-2-fluoro-5-methyl-6-(trifluoromethyl)phenyl)-2-(((2R, 7A S)-2-fluorotetrahydro-1H-pyrrolazin-7a(5H)-yl)methoxy)-6,6-dioxo-7,8-dihydro-5H-thiaran[4,3-d]pyrimidin-4-yl)-1-(2-fluoroacryloyl)pyrazin-2-yl)acetonitrile] | < 10 nM
12 | C=C(F)C(=O)N1CCN(c2nc(OC[C@@]34CCCN3C[C@H](F)C4)nc3c2CS(=O)(=O)[C@@H](c2c(F)c(N)cc(C)c2C(F)(F)F)C3)C[C@@H]1CC#N [Compound 4B, 2-((2S)-4-((7R)-7-(3-amino-2-fluoro-5-methyl-6-(trifluoromethyl)phenyl)-2-(((2R, 7A S)-2-fluorotetrahydro-1H-pyrrolazin-7a(5H)-yl)methoxy)-6,6-dioxo-7,8-dihydro-5H-thiaran[4,3-d]pyrimidin-4-yl)-1-(2-fluoroacryloyl)pyrazin-2-yl)acetonitrile] | < 10 nM
13 | C=CC(=O)N1CCN(c2nc(OC[C@@]34CCCN3C[C@H](F)C4)nc3c2CS(=O)(=O)C(c2nc(N)cc(C)c2C(F)(F)F)C3)[C@@H](C)C1 (stereo partly drawn) [Compound 5, 1-((3S)-4-(7-(6-amino-4-methyl-3-(trifluoromethyl)pyridin-2-yl)-2-(((2R,7AS)-2-fluorotetrahydro-1H-pyrrolazin-7a(5H)-yl)methoxy)-6,6-dioxo-7,8-dihydro-5H-thiaran[4,3-d]pyrimidin-4-yl)-3-methylpyrazin-1-yl)prop-2-en-1-one] | < 10 nM
14 | C=CC(=O)N1CCN(c2nc(OC[C@@]34CCCN3C[C@H](F)C4)nc3c2CS(=O)(=O)[C@H](c2nc(N)cc(C)c2C(F)(F)F)C3)[C@@H](C)C1 [Compound 5A, 1-((3S)-4-((7S)-7-(6-amino-4-methyl-3-(trifluoromethyl)pyridin-2-yl)-2-(((2R,7AS)-2-fluorotetrahydro-1H-pyrrolazin-7a(5H)-yl)methoxy)-6,6-dioxo-7,8-dihydro-5H-thiaran[4,3-d]pyrimidin-4-yl)-3-methylpyrazin-1-yl)prop-2-en-1-one] | < 10 nM
15 | C=CC(=O)N1CCN(c2nc(OC[C@@]34CCCN3C[C@H](F)C4)nc3c2CS(=O)(=O)[C@@H](c2nc(N)cc(C)c2C(F)(F)F)C3)[C@@H](C)C1 [Compound 5B, 1-((3S)-4-((7R)-7-(6-amino-4-methyl-3-(trifluoromethyl)pyridin-2-yl)-2-(((2R,7AS)-2-fluorotetrahydro-1H-pyrrolazin-7a(5H)-yl)methoxy)-6,6-dioxo-7,8-dihydro-5H-thiaran[4,3-d]pyrimidin-4-yl)-3-methylpyrazin-1-yl)prop-2-en-1-one] | < 10 nM
16 | C=C(F)C(=O)N1CCN(c2nc(OC[C@@]34CCCN3C[C@H](F)C4)nc3c2CS(=O)(=O)C(c2nc(N)cc(C)c2C(F)(F)F)C3)[C@@H](C)C1 (stereo partly drawn) [Compound 6, 1-((3S)-4-(7-(6-amino-4-methyl-3-(trifluoromethyl)pyridin-2-yl)-2-(((2R,7AS)-2-fluorotetrahydro-1H-pyrrolazin-7a(5H)-yl)methoxy)-6,6-dioxo-7,8-dihydro-5H-thiaran[4,3-d]pyrimidin-4-yl)-3-methylpyrazin-1-yl)-2-fluoroprop-2-en-1-one] | < 10 nM
17 | C=C(F)C(=O)N1CCN(c2nc(OC[C@@]34CCCN3C[C@H](F)C4)nc3c2CS(=O)(=O)[C@H](c2nc(N)cc(C)c2C(F)(F)F)C3)[C@@H](C)C1 [Compound 6A, 1-((3S)-4-((7S)-7-(6-amino-4-methyl-3-(trifluoromethyl)pyridin-2-yl)-2-(((2R,7AS)-2-fluorotetrahydro-1H-pyrrolazin-7a(5H)-yl)methoxy)-6,6-dioxo-7,8-dihydro-5H-thiaran[4,3-d]pyrimidin-4-yl)-3-methylpyrazin-1-yl)-2-fluoroprop-2-en-1-one] | < 10 nM
18 | C=C(F)C(=O)N1CCN(c2nc(OC[C@@]34CCCN3C[C@H](F)C4)nc3c2CS(=O)(=O)[C@@H](c2nc(N)cc(C)c2C(F)(F)F)C3)[C@@H](C)C1 [Compound 6B, 1-((3S)-4-((7R)-7-(6-amino-4-methyl-3-(trifluoromethyl)pyridin-2-yl)-2-(((2R,7AS)-2-fluorotetrahydro-1H-pyrrolazin-7a(5H)-yl)methoxy)-6,6-dioxo-7,8-dihydro-5H-thiaran[4,3-d]pyrimidin-4-yl)-3-methylpyrazin-1-yl)-2-fluoroprop-2-en-1-one] | < 10 nM
